Assay results reported in patent US4699903A, “Therapeutic use of tin diiododeuteroporphyrin” (The Rockefeller University, priority 1987, dated 1987).
Values joined by “and” are separate entries in the source; they are usually repeats but may differ in a detail not shown here. Equal values may be shown once. Read-outs that look alike come from different tables or passages of the source. One block for each compound: values may come before it.

Tests used:
[1] = Fluorescence characteristics in pyridine; format: physicochemical
Protocol: (2) Fluorescence characteristics: A 1 μM solution of SnI2 DP in pyridine was excited at 400 nm and 2 emission peaks were detected at 578 nm and 635 nm. The measurable fluorescence represents less than 5% of that found for SnPP and SnMP.

[2] = system: serum bilirubin; experiment: Serum bilirubin in ALA-treated hyperbilirubinemia, 7-day old suckling rats; format: in vivo, rat; conditions: ALA 50 μmmol/100 g at 0, 4 and 8 hours, sacrificed 16 hours after last ALA
Protocol: (§1) The next study established the ability of SnI2 DP to inhibit the ability of γ-aminolevulinic acid (ALA) to produce jaundice. This study of the efficacy of SnI2 DP to control hyperbilirubinemia thereby preventing the jaundice which develops in rats treated 7 days after birth with ALA is described by Drummond and Kappas, J. Clin. Invest. 74, 142-149 (1984). In the test, ALA (50 μmmol/100 g body weight) is administered to suckling 7 day old rats at 0, 4 and 8 hours, the animals sacrificed 16 hours after the last administration of ALA, and the serum biliribin measured.

[3] = target: T1, heme oxygenase (Rattus norvegicus, UniProt P06762); experiment: Tissue heme oxygenase activity after simultaneous administration of heme; format: in vivo; parameters: from tissue; conditions: heme 6.1 μmol/kg b.w. simultaneously, n = 4
T1 sequence (P06762 1-289): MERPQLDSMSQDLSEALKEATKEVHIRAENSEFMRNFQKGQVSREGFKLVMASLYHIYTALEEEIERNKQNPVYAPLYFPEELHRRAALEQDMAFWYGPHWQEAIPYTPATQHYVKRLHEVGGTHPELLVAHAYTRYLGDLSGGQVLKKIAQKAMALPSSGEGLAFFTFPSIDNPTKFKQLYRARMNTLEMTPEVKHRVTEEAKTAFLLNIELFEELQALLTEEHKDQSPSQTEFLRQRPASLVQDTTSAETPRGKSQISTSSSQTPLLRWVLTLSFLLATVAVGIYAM
Protocol: (§2) Simultaneous intraveous (IV) administration of heme (6.1 μmol/kg b.w.) and SnI2 DP was examined in four pairs of bile duct cannulated adult male rats. The effect of simultaneous administration of heme and SnI2 DP on heme levels in bile and tissue heme oxygenase activity are shown in Tables V and VI respectively.
(§3) Each group was administered heme (6.1 μmol/kg b.w.) simultaneously with either SnI2 DP or saline.

[4] = system: heme oxygenase; experiment: Hepatic heme oxygenase activity in ALA-treated 7-day old suckling rats; format: in vivo, rat; conditions: ALA 50 μmmol/100 g at 0, 4 and 8 hours, sacrificed 16 hours after last ALA
Protocol: as §1
(§4) Heme oxygenase was determined as described by Drummond and Kappas Proc. Natl. Acad. Sci. USA 78: 6466(1981).

[5] = Singlet and triplet lifetimes; format: physicochemical
Protocol: (3) Singlet and triplet lifetimes: The singlet lifetime of SnI2 DP was determined to be 23 psec (this is at the lower levels of instrument detection). The singlet lifetimes of SnPP and SnMP are 500-600 p sec. The triplet lifetime of SnI2 DP was determined to be 0.2 millisec. The triplet lifetimes of SnPP and SnMP are 0.5 and 2.5 milliseconds respectively.

[6] = system: heme; experiment: Heme excretion in bile after simultaneous i.v. heme and SnI2 DP, bile duct cannulated adult male rats; format: in vivo, rat; conditions: heme 6.1 μmol/kg b.w. i.v. simultaneously
Protocol: as §2, §3

[7] = system: heme oxygenase; experiment: Tissue heme oxygenase activity in bile duct cannulated adult rats; format: in vivo, rat; conditions: i.v. 10 μmol/kg b.w., n=5
Protocol: (§5) In the next in vivo test designed to measure the decrease in bilirubin production, SnI2 DP was administered intravenously to five adult rats, 12-15 weeks old at a dose of 10 μmol/kg body weight. Five control rats were administered saline. The bile duct was cannulated and the bile fluid analyzed for bilirubin content.
(§6) In addition, the activity of hepatic, renal and splenic heme oxygenase was decreased in bile duct cannulated animals administered SnI2 DP.
(§7) SnI2 DP administered i.v. at a dose of 10 μmol/kg b.w.
(§8) When compared to saline treated controls, n=5.

[8] = target: T1, heme oxygenase; experiment: as above; format: in vivo; parameters: from tissue; conditions: i.v. 10 μmol/kg b.w., n=5
Protocol: as §5, §6, §7, §8

[9] = system: serum bilirubin; experiment: Serum bilirubin levels in newborn rats; format: in vivo, rat
Protocol: (§9) The in vivo ability of SnI2 DP to reduce serum bilirubin was established by studies in neonatal rats. The studies were conducted with four separate litters each containing ten neonates.
(§10) To prepare the solution for parenteral administration, SnI2 DP was taken up in a small volume of 0.2N sodium hydroxide, adjusted to pH 7.4 with 1N hydrochloric acid and made up to final volume with 0.9% sodium chloride. The solution as prepared and used contained a final SnI2 DP concentration of 10 μmol/kg body weight in each 0.1 ml injection volume. Control neonates received 0.1 ml of 0.9% sodium chloride at birth. One group of animals was sacrificed at 24 hours which is normally the peak of bilirubin for neonate rates. The total bilirubin in serum was estimated by the method of Roth, Clin. Chem. Acta, 17 487-492, 1967.

[10] = target: T1, heme oxygenase; experiment: Inhibition of heme oxygenase conversion of heme to bilirubin, rat spleen microsomes; format: biochemical; parameters: using rat spleen microsomes as the source of heme oxygenase; from tissue; host or cells: rat spleen microsomes; conditions: for Ki: rat spleen microsomes; for inhibition constant compared with that of SnI2 DP: heme oxygenase
Protocol: In an initial study using rat spleen microsomes as the source of heme oxygenase the ability of SnI2 DP to inhibit the activity of heme oxygenase to convert heme to bilirubin was determined.
Km=rate constant for heme oxygenase
KmAPP =rate constant for heme oxygenase in the presence of SnI2 DP

[11] = system: heme oxygenase; experiment: Tissue heme oxygenase activity in newborn rats after SnI2 DP; format: in vivo, rat
Protocol: as §9, §10, §4

[12] = system: biliary bilirubin; experiment: Drop in biliary bilirubin production in bile duct cannulated adult rats; format: in vivo, rat
Protocol: as §5

[13] = system: heme oxygenase; experiment: Tissue heme oxygenase activity after simultaneous administration of heme; format: in vivo, rat; conditions: heme 6.1 μmol/kg b.w. simultaneously, n = 4
Protocol: as §2, §3

- fluorescence quenched by comparison with SnPP [1]: 95%
- measurable fluorescence as % of that found for SnPP and SnMP ([1]; 1 μM solution in pyridine, excited at 400 nm): less than 5%
- Heme Oxygenase Spleen [3]: 8.15 ± 0.52 nmol/mg p h
- singlet lifetime [5]: 23 psec
- triplet lifetime [5]: 0.2 millisec
- Heme Oxygenase Spleen [8]: 5.37 ± 1.09 nmol/mg p h
- Ki ([10]; Lineweaver Burke plots, average of four determinations, read-out: inhibition constant Ki): 0.069 ± 0.007 µM
- Ki ([10]; four separate determinations, read-out: Ki, separate determinations): 0.057 µM and 0.088 µM and 0.062 µM and 0.07 µM
Compound: tin diiododeuteroporphyrin [SnI2 DP]
- Serum Bilirubin [2]: 0.54 ± 0.02 mg/dL
- Heme Oxygenase Liver [4]: 8.29 ± 0.48 nmol/mg p h
- photosensitizing potential compared with SnPP and SnMP ([5]; inferred from fluorescence and triplet lifetime): less photosensitizing potential
- Heme excreted in bile (% of administered dose), Average ([6]; average of 4 experiments): 44.9 ± 4.79 % of administered dose
- Heme excreted in bile (% of administered dose) ([6]; single experiments 1-4): 51.8 % of administered dose and 48.8 % of administered dose and 48.2 % of administered dose and 30.7 % of administered dose
- Heme Oxygenase Kidney [7]: 0.45 ± 0.03 nmol/mg p h
- Heme Oxygenase Liver [7]: 2.06 ± 0.75 nmol/mg p h
- Serum Bilirubin ([9]; newborn rats, 10 μmol/kg at birth, 24 hours): 0.34 ± 0.02 mg/dL
- activity in preventing serum bilirubin increase, as % of that of SnMP ([9]; rat neonates): about 10%
- activity in preventing serum bilirubin increase, compared with SnPP ([9]; rat neonates): roughly the same
- kidney heme oxygenase activity ([11]; neonates, repeated test, 48 hours after birth): 0.88 nmol/mg p h
- Heme Oxygenase Kidney ([11]; newborn rats, 10 μmol/kg at birth, 24 hours, kidney bulked): 1.13 nmol/mg p h
- Heme Oxygenase Spleen ([11]; newborn rats, 10 μmol/kg at birth, 24 hours, spleen bulked): 3.74 nmol/mg p h
- Heme Oxygenase Liver ([11]; newborn rats, 10 μmol/kg at birth, sacrificed at 24 hours): 8.07 ± 0.06 nmol/mg p h
- Drop in biliary bilirubin production, % decrease ([12]; adult rats, 10 μmol/kg i.v., bile duct cannulated, single experiments 1-5): 60% and 35% and 47% and 44% and 48%
- average difference between treated and control decline in biliary bilirubin ([12]; adult rats, 10 μmol/kg i.v., p<0.01): 21%
- ability to lower heme oxygenase activity, serum and bile bilirubin levels, compared with SnMP ([12]; rats): not as effective as SnMP
- Heme Oxygenase Kidney [13]: 1.04 ± 0.22 nmol/mg p h
- Heme Oxygenase Liver [13]: 5.03 ± 0.72 nmol/mg p h

- singlet lifetime [5]: 500-600 psec
- triplet lifetime [5]: 0.5 millisec
- inhibition constant compared with that of SnI2 DP [10]: approximately the same
Compound: C=Cc1c2[n-]c(c1C)/C=c1\[n-]/c(c(C)c1C=C)=C\c1[n-]c(c(CCC(=O)O)c1C)C=c1[n-]/c(c(C)c1CCC(=O)O)=C\2.[Sn+4] [SnPP, tin protoporphyrin IX]

- singlet lifetime [5]: 500-600 psec
- triplet lifetime [5]: 2.5 millisec
- inhibition constant compared with that of SnI2 DP [10]: approximately the same
Compound: tin mesoporphyrin [SnMP]

Compound: NCC(=O)CCC(=O)O [ALA, γ-aminolevulinic acid, reference compound]
- Serum Bilirubin [2]: 0.99 ± 0.06 mg/dL
- Heme Oxygenase Liver [4]: 11.29 ± 0.33 nmol/mg p h
